# Results reported in patent US20260056187A1, “METHODS OF FORMING PATIENT-DERIVED 3D CELL CULTURES FOR TRACKING LIVE IMMUNE-TUMOR INTERACTIONS” (OUROTECH, INC., priority 2022, published 2026).
# Tests used:
# [1] = tested on: kidney tumor cells with PBMCs (1:5); assay: 3D tumor-immune co-culture, combination therapies, change in tumor cell numbers over 3 days (Example 19); settings: normalized to Day 0, staurosporine 5 μM, axitinib 10 μM + pembrolizumab 10 μg/mL, n=3
# [2] = tested on: TNBC cell line xenografts (CDXs); settings: BRGS-HIS mice with TNBC CDXs; cited from earlier work
# [3] = tested on: 3D tumor-immune culture from a patient with renal cell carcinoma (tumor cells and matched PBMCs); assay: 3D tumor-immune culture, Keytruda treatment compared to CD3 activation, live cell imaging over 5 days (Example 17); format: cell-based, human; settings: for tumor-containing hydrogel dome volume: 10 μg/mL Keytruda vs CD3-activated/control culture, evident by Day 1
# Description: A) An aliquot of pembrolizumab (25 mg/mL) was diluted in PBS to achieve a working stock of 1 mg/mL. 2 μL of this stock is added to the tumor-immune culture to achieve a final dose of 10 μg/mL. In parallel, 2 μL of a 1 mg/mL stock of human anti-IgG4 is added to a negative control tumor-immune culture.
# A tumor sample and matched blood sample from a patient with renal cell carcinoma were prepared according to the foregoing Examples and methods. Briefly, PBMCs were isolated from blood and CD8^+ and CD8^− cells were separated, stained, and recombined as previously described. PBMCs were either cultured with 1 μg/mL anti-CD3 or 10 μg/mL Keytruda for 18 hours. Tumors were dissociated and stained and 10,000 cells were encapsulated in hydrogel as previously described. At TO, 100,000 PBMCs from each condition were added to tumor cultures. Live cell imaging, using confocal microscopy, was conducted each day for 5 days and images were analyzed using the disclosed computer vision pipeline. The presented data are from single replicates obtained from one experiment.
compound,measurement,setting,value
CN[C@@H]1C[C@H]2O[C@@](C)([C@@H]1OC)n1c3ccccc3c3c4c(c5c6ccccc6n2c5c31)C(=O)NC4 [Staurosporine],change in tumor cell count,[1],decreased tumor cell count the most
nivolumab,time after treatment until significant effect on tumor volume relative to vehicle control,[2],≥ 10 days
pembrolizumab [Keytruda],clustering of hydrogel-infiltrated CD8+ PBMCs,"[3]; 10 μg/mL Keytruda or 1 μg/mL anti-CD3, over 5 days, single replicate",more clustering over time
same,rate of dome volume shrinking,"[3]; 10 μg/mL Keytruda vs CD3-activated sample, Day 1",higher at Day 1
same,viability of tumor cells / tumor cell death,"[3]; 10 μg/mL Keytruda vs CD3-activated sample, evident by Day 2, single replicate",increased tumor cell death
same,speed of CD8+ PBMCs infiltrated into the hydrogel (migration peak speed),"[3]; 10 μg/mL Keytruda vs CD3-activated sample, over 5 days, single replicate",higher CD8^+ cell migration peak speed
same,tumor-containing hydrogel dome volume,[3]; single replicate,dome volume shrinks more
same,tumor-containing hydrogel dome volume,"[3]; single replicate, listed as Keytruda/pembrolizumab","measurable, and noticeable, and may be statistically significantly different, by one day after adding the treatment"
same,clustering of hydrogel-infiltrated CD8- and CD8+ PBMCs together,"[3]; 10 μg/mL Keytruda vs CD3 activation, throughout 5 days, single replicate",clustered together more
same,infiltration of CD8+ PBMCs into the tumor-containing hydrogel (absolute counts),"[3]; PBMCs cultured 18 hours with 10 μg/mL Keytruda vs 1 μg/mL anti-CD3, evident as early as Day 1, single replicate",increased infiltration of CD8^+ cells into the tumor-containing hydrogel
